From article PMC11822712, “Improving the Activity and Selectivity of a Scorpion-Derived Peptide, A3a, against Acinetobacter baumannii through Rational Design” (ACS Omega, 2025)
≈ marks a conversion by molar mass, not a printed value. Where two headings read alike, the source gives them in different places. Positions of bridges follow the written chain, without caps; N, C: chain ends. Non-standard residues stand in square brackets, D forms with d. Residues, ends and D or L forms follow the SMILES beside them. No end group written: not given here. *: point of attachment. X1 = CC[C@H](C)CCCCC(=O)*; Dab = NCC[C@H](N)C(=O)O

Tests used:
P. aeruginosa ATCC 27853 = assay: microbe, parasite or virus in culture; format: cell-based, Pseudomonas aeruginosa; settings: cation-adjusted MHB, OD600
A. baumannii ATCC 19606 [1] = assay: microbe, parasite or virus in culture; format: cell-based, Acinetobacter baumannii; settings: cation-adjusted MHB, OD600
[2] = tested on: K. pneumoniae ATCC BAA-1705; assay: microbe, parasite or virus in culture; format: cell-based, Klebsiella pneumoniae
[3] = tested on: S. aureus (MSSA) ATCC 25923; assay: microbe, parasite or virus in culture; format: cell-based, Staphylococcus aureus; settings: cation-adjusted MHB, OD600
E. coli ATCC 25922 = assay: microbe, parasite or virus in culture; format: cell-based, Escherichia coli; settings: cation-adjusted MHB, OD600
E. cloacae ATCC 700323 = assay: microbe, parasite or virus in culture
Experimental: Antimicrobial activity was determined against a panel of ESKAPE pathogens. […] Bacterial colonies were picked and cultured in cation-adjusted MHB at 37 °C with 180 rpm shaking. Cultures were back-diluted to reach a starting OD600 of 0.1 and then diluted 100-fold to approximately 1 × 10^6 CFU/mL.

HaCat cell = settings: read-out: IC50 of HaCat cell viability; cited from earlier work
Experimental: Previously, we amidated the C-terminus of A3 to improve its activity against Gram-negative bacteria.[14] A3, the amidated analogue A3a, and the parent peptide AamAP1 were evaluated for antibacterial activity against a panel of ESKAPE pathogens.

erythrocytes = settings: 40 μM ref 13; cited from earlier work
A. baumannii ATCC 19606 [4] = assay: Killing kinetics (CFU, Miles Misra method); format: cell-based, Acinetobacter baumannii; settings: 1×, 4× and 8× MIC, A3a tested at the same concentration as A3a[R7K] (Figure 3 legend)
Experimental: Colistin (8 μg/mL) was used as a positive control. […] Following exposure, 10 μL was used from the individual wells to determine the CFUs with the Miles Misra method.[57] The limit of detection for this method was 1000 CFUs. This was done at 30 min and 2, 6, and 24 h.

A. baumannii ATCC 19606 [5] = assay: Membrane permeabilization, SYTOX Green assay; format: cell-based, Acinetobacter baumannii; settings: SYTOX Green fluorescence, 1× MIC, 0.5 and 2 h exposure; melittin 8 μM positive control; three biological repeats
Experimental: For membrane permeabilization studies, A. baumannii ATCC 19606 cells were evaluated after exposure to each peptide by measuring fluorescence. The SYTOX Green assay was undertaken according to Zeng et al.,[58] with some modifications. […] Melittin (8 μM) was used as the positive control. The fluorescence was measured every 2 min at excitation and emission wavelengths of 485 and 535 nm, respectively (Spectramax, Multimode detection platform, Molecular Devices, Austria).

[6] = approx. 1 × 10^6 CFU/mL added 1:1, 20 h, MIC = lowest concentration with growth <0.1 above background, > = no activity at highest concentration tested
[7] = cation-adjusted MHB, approx. 1 × 10^6 CFU/mL added 1:1, 20 h, OD600, MIC = lowest concentration with growth <0.1 above background, > = no activity at highest concentration tested
[8] = same test as μg/mL value, 20 h, read-out: MIC (value in brackets)
[9] = same test as μg/mL value, cation-adjusted MHB, 20 h, OD600

Row | Compound | MIC (P. aeruginosa ATCC 27853; [6]) [µg/mL] | MIC (A. baumannii ATCC 19606 [1]; [6]) [µg/mL] | MIC [2, 7] [µg/mL] | MIC [3, 6] [µg/mL] | MIC (E. coli ATCC 25922; [6]) [µg/mL] | MIC (E. cloacae ATCC 700323; [7]) [µg/mL] | other results
1 | CNC(C)C1CCC(N)C(OC2C(N)CC(N)C(OC3OCC(C)(O)C(NC)C3O)C2O)O1 (stereo not drawn) [gentamicin] | 4 | 32 | 2 | 0.5 | 0.5 | – | MIC (P. aeruginosa ATCC 27853; Pseudomonas aeruginosa, ATCC27853, same test as μg/mL value, 20 h, read-out: MIC (value in brackets)): 8 µM; MIC (A. baumannii ATCC 19606 [1]; Acinetobacter baumannii, ATCC19606, same test as μg/mL value, 20 h, read-out: MIC (value in brackets)): 67 µM; MIC ([2]; Klebsiella pneumoniae, ATCCBAA1705, 20 h, read-out: MIC (value in brackets)): 4 µM; MIC ([3]; Staphylococcus aureus, same test as μg/mL value, 20 h, read-out: MIC (value in brackets)): 1 µM; MIC (E. coli ATCC 25922; Escherichia coli, ATCC25922, same test as μg/mL value, 20 h, read-out: MIC (value in brackets)): 1 µM; MIC (E. cloacae ATCC 700323; Enterobacter cloacae, ATCC700323, 20 h, read-out: MIC (value in brackets)): 4 µM; MIC (E. cloacae ATCC 700323; cation-adjusted MHB, approx. 1 × 10^6 CFU/mL added 1:1, 20 h, OD600, […], > = no activity at highest concentration tested): 2 µg/mL
2 | CC[C@H](C)CCCCC(=O)N[C@@H](CCN)C(=O)N[C@H](C(=O)N[C@@H](CCN)C(=O)N[C@H]1CCNC(=O)[C@H]([C@@H](C)O)NC(=O)[C@H](CCN)NC(=O)[C@H](CCN)NC(=O)[C@H](CC(C)C)NC(=O)[C@@H](Cc2ccccc2)NC(=O)[C@H](CCN)NC1=O)[C@@H](C)O [polymyxin B] (X1-[Dab]T[Dab][Dab][Dab][dF]L[Dab][Dab]T; lactam 4-C (inferred); N-terminus assumed) | 2 | 1 | 0.5 | >32 | 0.5 | 0.25 | MIC (P. aeruginosa ATCC 27853; [8]): 1.5 µM; MIC (A. baumannii ATCC 19606 [1]; [8]): 0.76 µM; MIC (value in brackets) [2, 9]: 0.4 µM (≈ 0.481 µg/mL); MIC (E. coli ATCC 25922; [8]): 0.4 µM; MIC (value in brackets) (E. cloacae ATCC 700323; [9]): 0.19 µM (≈ 0.229 µg/mL)
3 | FLFSLIRKAIGGLISAFK [A3] | – | – | – | – | – | – | IC50 (HaCat cell): 59.9 µM; hemolysis (erythrocytes): 36.1%
4 | FLFSLRKAGGLISAFK-NH2 [A3a[I(6,10)-del]] | >128 | >128 | >128 | >128 | >128 | >128 | –
5 | colistin | – | – | – | – | – | – | regrowth after 24 h in killing kinetics (A. baumannii ATCC 19606 [4]): regrowth at all of the concentrations tested
6 | melittin | – | – | – | – | – | – | membrane permeabilization (A. baumannii ATCC 19606 [5]): rapid membrane permeabilization
